Consider 5 compounds from US12139520B2 (priority 2020, dated 2024).

The structures appear in SMILES notation. Numbered stars: 1 amine (or outer) side, 2 acyl side, 3 side chain; on linkers, the order of the positions; unused ones are H or OH. Bridge positions count the residues as written; N and C are the ends. Square brackets hold non-standard residues; d marks the D form. Peptide text beside a SMILES is read from it. * marks the point of attachment. C20 diacid = O=C(O)CCCCCCCCCCCCCCCCCCC(=O)*; γGlu = O=C(O)[C@H](CCC(=O)[*:2])N[*:1]; Hyp = O=C(O)[C@@H]1C[C@@H](O)CN1

One experiment has as its target T1, hAMY3 receptor (Homo sapiens, UniProt O60896+P30988).
T1 sequence (P30988 25-474): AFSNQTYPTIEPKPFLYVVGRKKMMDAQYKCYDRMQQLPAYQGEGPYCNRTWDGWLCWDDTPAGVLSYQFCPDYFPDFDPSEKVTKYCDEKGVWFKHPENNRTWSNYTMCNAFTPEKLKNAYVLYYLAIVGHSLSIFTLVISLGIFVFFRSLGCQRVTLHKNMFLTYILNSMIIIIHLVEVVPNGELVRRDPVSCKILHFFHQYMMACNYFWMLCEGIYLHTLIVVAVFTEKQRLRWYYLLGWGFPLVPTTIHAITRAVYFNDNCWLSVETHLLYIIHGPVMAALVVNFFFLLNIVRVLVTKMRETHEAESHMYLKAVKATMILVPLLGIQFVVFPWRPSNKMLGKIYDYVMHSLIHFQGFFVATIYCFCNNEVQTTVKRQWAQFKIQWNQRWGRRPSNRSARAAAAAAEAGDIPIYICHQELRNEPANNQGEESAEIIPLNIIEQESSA
T1 sequence (O60896 24-148 partner): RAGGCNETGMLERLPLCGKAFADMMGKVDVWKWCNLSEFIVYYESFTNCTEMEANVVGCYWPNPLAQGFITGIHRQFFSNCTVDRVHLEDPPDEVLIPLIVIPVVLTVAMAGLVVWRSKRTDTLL
As to the kind of experiment: cAMP assay for in vitro receptor activation, hAMY3-R. The class given is cell-based. As to conditions: cAMP assay, hAMY3 receptor; read-out: hAMY3R EC50. The essentials:
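Read-out is TR-FRET cAMP signal, recorded one hour after reagent addition, following 30 min room-temperature stimulation of stable hAMY3 cells with graded compound doses in casein/IBMX (0.5 mM) buffer.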
(cAMP levels reflect the balance of adenylyl cyclase and phosphodiesterase activity.)

For a further experiment, the target named is hAM1 receptor (Homo sapiens, UniProt O60895+Q16602). As to the kind of experiment: cAMP assay for in vitro receptor activation, hAM1-R. As to conditions: cAMP assay, hAM1 receptor; read-out: hAM1R EC50. The class given is cell-based. The essentials: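 Monoclonal stable hAM1-overexpressing cells, thawed from frozen stock; 8000 cells/well in DPBS + 0.05% casein + 0.5 mM IBMX; read-out cAMP.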
Sequence of hAM1 receptor (Q16602 23-461): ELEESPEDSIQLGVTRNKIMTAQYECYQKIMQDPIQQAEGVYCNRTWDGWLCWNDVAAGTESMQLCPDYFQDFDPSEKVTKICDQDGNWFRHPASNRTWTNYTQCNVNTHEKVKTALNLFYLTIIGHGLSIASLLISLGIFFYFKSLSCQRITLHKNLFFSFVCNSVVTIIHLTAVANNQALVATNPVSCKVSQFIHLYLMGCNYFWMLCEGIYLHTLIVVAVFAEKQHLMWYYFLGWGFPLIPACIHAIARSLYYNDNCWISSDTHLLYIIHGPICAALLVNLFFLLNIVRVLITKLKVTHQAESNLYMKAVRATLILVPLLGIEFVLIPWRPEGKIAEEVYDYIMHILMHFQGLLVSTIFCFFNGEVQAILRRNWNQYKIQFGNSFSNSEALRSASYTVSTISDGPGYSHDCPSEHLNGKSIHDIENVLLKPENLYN
Sequence of hAM1 receptor (O60895 43-175 partner): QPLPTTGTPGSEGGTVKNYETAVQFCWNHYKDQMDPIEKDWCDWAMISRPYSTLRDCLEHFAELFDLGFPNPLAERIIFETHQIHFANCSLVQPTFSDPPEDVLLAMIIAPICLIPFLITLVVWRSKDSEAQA

Take `CC[C@H](C)[C@H](NC(=O)[C@H](CCC(N)=O)NC(=O)[C@H](CCC(=O)O)NC(=O)[C@H](C)NC(=O)[C@H](CC(C)C)NC(=O)[C@H](CCCNC(=N)N)NC(=O)[C@H](CCC(N)=O)NC(=O)[C@@H](NC(=O)[C@@H](NC(=O)[C@@H]1CSSC[C@H](NC(=O)[C@H](CCCCN)NC(=O)CC[C@H](NC(=O)CCCCCCCCCCCCCCCCCCC(=O)O)C(=O)O)C(=O)N[C@@H](C)C(=O)N[C@@H]([C@@H](C)O)C(=O)N[C@@H](C)C(=O)N[C@@H]([C@@H](C)O)C(=O)N1)[C@@H](C)O)C(C)C)C(=O)N[C@@H](Cc1ccc(O)cc1)C(=O)N[C@@H](CCC(N)=O)C(=O)N[C@@H](Cc1ccccc1)C(=O)N[C@H](C(=O)N[C@@H](CC(=O)O)C(=O)N[C@@H](CCCCN)C(=O)N[C@@H](CC(=O)O)C(=O)N[C@@H](CCCCN)C(=O)N[C@@H](CC(=O)O)C(=O)N[C@@H](CC(N)=O)C(=O)N[C@H](C(=O)N[C@@H](C)C(=O)N1CCC[C@H]1C(=O)N1CCC[C@H]1C(=O)N[C@H](C(=O)N[C@@H](CC(N)=O)C(=O)N[C@H](C(=O)NCC(=O)N[C@@H](CO)C(=O)N[C@@H](CC(N)=O)C(=O)NCC(=O)N1C[C@H](O)C[C@H]1C(N)=O)C(C)C)[C@@H](C)O)C(C)C)[C@@H](C)O` [compound 97] ({C20 diacid-γGlu}-KCATATCTVQRLAEQIYQFTDKDKDNVAPPTNVGSNG[Hyp]-NH2; disulfide 2-7): the concentration for a half-maximal effect (EC50) is 0.016 nM at hAMY3 receptor and greater than 5000 nM at hAM1 receptor.
Regarding `CC[C@H](C)[C@H](NC(=O)[C@H](CCC(N)=O)NC(=O)[C@H](CCC(=O)O)NC(=O)[C@H](C)NC(=O)[C@H](CC(C)C)NC(=O)[C@H](CCCNC(=N)N)NC(=O)[C@H](CCC(N)=O)NC(=O)[C@@H](NC(=O)[C@@H](NC(=O)[C@@H]1CSSC[C@H](NC(=O)[C@H](CCCCN)NC(=O)CC[C@H](NC(=O)CCCCCCCCCCCCCCCCCCC(=O)O)C(=O)O)C(=O)N[C@@H](CC(N)=O)C(=O)N[C@@H]([C@@H](C)O)C(=O)N[C@@H](C)C(=O)N[C@@H]([C@@H](C)O)C(=O)N1)[C@@H](C)O)C(C)C)C(=O)N[C@@H](Cc1ccc(O)cc1)C(=O)N[C@@H](CCC(N)=O)C(=O)N[C@@H](Cc1ccccc1)C(=O)N[C@H](C(=O)N[C@@H](CC(=O)O)C(=O)N[C@@H](CCCCN)C(=O)N[C@@H](CC(=O)O)C(=O)N[C@@H](CCCCN)C(=O)N[C@@H](CC(=O)O)C(=O)N[C@@H](CCC(N)=O)C(=O)N[C@H](C(=O)N[C@@H](C)C(=O)N1CCC[C@H]1C(=O)N1CCC[C@H]1C(=O)N[C@H](C(=O)N[C@@H](CC(N)=O)C(=O)N[C@H](C(=O)NCC(=O)N[C@@H](CO)C(=O)N[C@@H](CC(N)=O)C(=O)NCC(=O)N1C[C@H](O)C[C@H]1C(N)=O)C(C)C)[C@@H](C)O)C(C)C)[C@@H](C)O` [compound 100] ({C20 diacid-γGlu}-KCNTATCTVQRLAEQIYQFTDKDKDQVAPPTNVGSNG[Hyp]-NH2; disulfide 2-7), the EC50 at hAMY3 receptor is 0.017 nM; on hAM1 receptor it was greater than 5000 nM.
For `CC[C@H](C)[C@H](NC(=O)[C@H](CCC(N)=O)NC(=O)[C@H](CCC(=O)O)NC(=O)[C@H](C)NC(=O)[C@H](CC(C)C)NC(=O)[C@H](CCCNC(=N)N)NC(=O)[C@H](CCC(N)=O)NC(=O)[C@@H](NC(=O)[C@@H](NC(=O)[C@@H]1CSSC[C@H](NC(=O)[C@@H](N)CCCCN)C(=O)N[C@@H](CC(N)=O)C(=O)N[C@@H](C)C(=O)N[C@@H](C)C(=O)N[C@@H]([C@@H](C)O)C(=O)N1)[C@@H](C)O)C(C)C)C(=O)N[C@@H](Cc1ccc(O)cc1)C(=O)N[C@@H](CCC(N)=O)C(=O)N[C@@H](Cc1ccccc1)C(=O)N[C@H](C(=O)N[C@@H](CC(=O)O)C(=O)N[C@@H](CCCCN)C(=O)N[C@@H](CC(=O)O)C(=O)N[C@@H](CCCCN)C(=O)N[C@@H](CC(=O)O)C(=O)N[C@@H](CC(N)=O)C(=O)N[C@H](C(=O)N[C@@H](C)C(=O)N1CCC[C@H]1C(=O)N1CCC[C@H]1C(=O)N[C@H](C(=O)N[C@@H](CC(N)=O)C(=O)N[C@H](C(=O)NCC(=O)N[C@@H](CO)C(=O)N[C@@H](CC(N)=O)C(=O)NCC(=O)N1C[C@H](O)C[C@H]1C(N)=O)C(C)C)[C@@H](C)O)C(C)C)[C@@H](C)O` [compound 101] (H-KCNAATCTVQRLAEQIYQFTDKDKDNVAPPTNVGSNG[Hyp]-NH2; disulfide 2-7; N-terminus assumed) the same measures were 0.017 nM and greater than 5000 nM.
On the same counts, the results for `CC[C@H](C)[C@H](NC(=O)[C@H](CCC(N)=O)NC(=O)[C@H](Cc1c[nH]cn1)NC(=O)[C@H](C)NC(=O)[C@H](CC(C)C)NC(=O)[C@H](CCCNC(=N)N)NC(=O)[C@H](CCC(N)=O)NC(=O)[C@@H](NC(=O)[C@@H](NC(=O)[C@@H]1CSSC[C@H](NC(=O)[C@@H](N)CCCCN)C(=O)N[C@@H](CC(N)=O)C(=O)N[C@@H]([C@@H](C)O)C(=O)N[C@@H](C)C(=O)N[C@@H]([C@@H](C)O)C(=O)N1)[C@@H](C)O)C(C)C)C(=O)N[C@@H](Cc1ccc(O)cc1)C(=O)N[C@@H](CCC(N)=O)C(=O)N[C@@H](Cc1ccccc1)C(=O)N[C@H](C(=O)N[C@@H](CC(=O)O)C(=O)N[C@@H](CCCCN)C(=O)N[C@@H](CC(=O)O)C(=O)N[C@@H](CCCCN)C(=O)N[C@@H](CC(=O)O)C(=O)N[C@@H](CC(N)=O)C(=O)N[C@H](C(=O)N[C@@H](C)C(=O)N1CCC[C@H]1C(=O)N[C@@H](CCCNC(=N)N)C(=O)N[C@H](C(=O)N[C@@H](CCC(=O)O)C(=O)N[C@H](C(=O)NCC(=O)N[C@@H](CO)C(=O)N[C@@H](CC(N)=O)C(=O)NCC(=O)N[C@@H](Cc1ccc(O)cc1)C(N)=O)C(C)C)[C@@H](C)O)C(C)C)[C@@H](C)O` [compound 102] (H-KCNTATCTVQRLAHQIYQFTDKDKDNVAPRTEVGSNGY-NH2; disulfide 2-7; N-terminus assumed) are 0.018 nM and greater than 5000 nM.
For `CC[C@H](C)[C@H](NC(=O)[C@H](CCC(N)=O)NC(=O)[C@H](Cc1c[nH]cn1)NC(=O)[C@H](C)NC(=O)[C@H](CC(C)C)NC(=O)[C@H](CCCNC(=N)N)NC(=O)[C@@H](NC(=O)[C@@H](NC(=O)[C@@H](NC(=O)[C@@H]1CSSC[C@H](NC(=O)[C@H](CCCCN)NC(=O)CC[C@H](NC(=O)CCCCCCCCCCCCCCCCCCC(=O)O)C(=O)O)C(=O)N[C@@H](CC(N)=O)C(=O)N[C@@H]([C@@H](C)O)C(=O)N[C@@H](C)C(=O)N[C@@H]([C@@H](C)O)C(=O)N1)[C@@H](C)O)C(C)C)C(C)C)C(=O)N[C@@H](Cc1ccc(O)cc1)C(=O)N[C@@H](CCC(N)=O)C(=O)N[C@@H](Cc1ccccc1)C(=O)N[C@H](C(=O)N[C@@H](CC(=O)O)C(=O)N[C@@H](CCCCN)C(=O)N[C@@H](CC(=O)O)C(=O)N[C@@H](CCCCN)C(=O)N[C@@H](CC(=O)O)C(=O)N[C@@H](CC(N)=O)C(=O)N[C@H](C(=O)N[C@@H](C)C(=O)N1CCC[C@H]1C(=O)N1CCC[C@H]1C(=O)N[C@H](C(=O)N[C@@H](CC(N)=O)C(=O)N[C@H](C(=O)NCC(=O)N[C@@H](CO)C(=O)N[C@@H](CC(N)=O)C(=O)NCC(=O)N1C[C@H](O)C[C@H]1C(N)=O)C(C)C)[C@@H](C)O)C(C)C)[C@@H](C)O` [compound 103] ({C20 diacid-γGlu}-KCNTATCTVVRLAHQIYQFTDKDKDNVAPPTNVGSNG[Hyp]-NH2; disulfide 2-7) the same measures were 0.018 nM and greater than 5000 nM.

One may read the EC50 as the concentration needed to bring the measured effect to its halfway point.
